# Assays:
# [1] = test system: patient treated with the membrane lung NovaLung iLA; assay: application of the membrane lung NovaLung iLA on a patient receiving ASA; scanning electron microscope image of the gas exchange membrane; type: in vivo, human
# Experimental: A patient who required treatment with the NovaLung iLA was administered 50 mg of ASA daily for 1 week before application of the membrane lung. This administration of 50 mg of ASA daily was initially maintained during application of the membrane lung, but the medicament was discontinued one week before removal of the membrane lung. […] FIG. 1 is a scanning electron microscope image of the gas exchange membrane from the membrane lung which was removed and dismantled after a period of use of 14 days on the patient thus treated and medicated.
# platelet aggregation = platelet aggregation in the patient receiving ASA with NovaLung iLA treatment, standard clinical methods; type: in vivo, human
# Experimental: The membrane lung NovaLung iLA itself was used in the manner described by Fischer el al., loc cit. The platelet aggregation was determined using standard clinical methods.
smiles,measurement,setting,value
"CC(=O)Oc1ccccc1C(=O)O [ASA, acetylsalicylic acid]","deposition of blood constituents on the gas exchange membrane (scanning electron microscope image, FIG. 1)","[1]; 50 mg ASA daily oral, membrane lung removed after period of use of 14 days on the patient",no deposition of blood constituents
same,gas exchange performance and flow resistance of the membrane lung to the blood stream,"[1]; 50 mg ASA daily, membrane lung left on the patient for 2 weeks",without an appreciable reduction in gas exchange performance or an appreciable increase in the flow resistance
same,platelet aggregation (FIG. 3),"platelet aggregation; 50 mg ASA daily, during the second week of ASA administration",remained at its reduced value
same,platelet aggregation (FIG. 3),"platelet aggregation; 50 mg ASA daily, within the first week of ASA administration, when the membrane lung was connected",below 20%
same,platelet aggregation (FIG. 3),"platelet aggregation; two weeks after start of treatment with the membrane lung, 1 week after discontinuation of ASA",below 30%
